From publication PMC8308784, “Novel Purine Chemotypes with Activity against Plasmodium falciparum and Trypanosoma cruzi” (Pharmaceuticals, 2021)
Where two headings read alike, the source gives them in different places.

Tests used:
[1] = test system: T. cruzi Tulahuen strain expressing β-galactosidase; test: T. cruzi primary screening at three fixed concentrations; type: cell-based; conditions: for activity at 100 µM / activity at 1 µM / activity at 10 µM: Trypanosoma cruzi, TULAHUEN; for activity at 100 µM: read-out: Primary screening, growth inhibition values at 100 µM; for activity at 1 µM: read-out: Primary screening, growth inhibition values at 1 µM; for activity at 10 µM: read-out: Primary screening, growth inhibition values at 10 µM
Method: (§1) T. cruzi parasites from the Tulahuen strain (discrete typing unit (DTU) VI) expressing β-galactosidase were maintained in culture by the infection of LLC-MK2 cells in DMEM supplemented with 2% FBS and 1% penicillin–streptomycin–glutamine (PSG), as described in [52]. When free-swimming trypomastigotes were released to the culture medium, they were centrifuged for 7 min at 2500 rpm and allowed to swim out of the pellet. Trypomastigotes were used to maintain the parasite cycle, or for the performance of the antiparasitic assays.
[…] Conditions were tested in triplicate for every concentration. Z-values varied between 0.81 and 0.92 in the different plates analyzed. Selected compounds (34.6% potential hit rate) were further analyzed via standard growth inhibition assays. The Z-values of dose–response assays correlated with those previously reported. For both assays, Vero cells and trypomastigotes from the Tulahuen T. cruzi strain expressing β-galactosidase were harvested, centrifuged, and resuspended in DMEM without phenol red supplemented with 1% PSG, 2% FBS, 1 mM sodium pyruvate, and 25 mM HEPES. Vero cells and trypomastigotes were counted, diluted at a concentration of 1 × 10^6 cells/mL each, and mixed 1:1 (v/v). Then, 100 μL of that mixture was added per well to the plates already containing the compounds. Each well contained 50,000 host cells and 50,000 parasites, i.e., multiplicity of infection (MOI) = 1. BNZ was used as control of maximal drug growth inhibition in each round, whereas each plate contained its own negative control (maximum parasite growth; Vero cells plus parasites without drugs) and positive control (minimum parasite growth; trypomastigote forms alone marking an enzymatic zero time or baseline galactosidase activity). After four days at 37 °C, 50 µL of a PBS solution containing 0.25% NP40 and 500 µM chlorophenol red-β-D-galactopyranoside (CPRG) substrate were added per well [32]. Plates were incubated at 37 °C for 4 h, and their absorbance read out at 590 nm using an Epoch Gene5 spectrophotometer.
(§2) Absorbance values derived from the anti-T. cruzi assays and fluorescence values from the anti-P. falciparum and cell toxicity assays were normalized to the controls. In the primary screening at three fixed doses, the compounds’ inhibitory activity was expressed as a percentage of the negative control (100% parasitic growth). In dose–response assays, the compounds’ IC50 and TC50 values were determined with GraphPad Prism 7 software (version 7.00, 2016), using a non-linear regression analysis model defined by the following equation: Y=100 ÷(1+10^((LogIC50−X)×HillSlope))

[2] = test system: P. falciparum 3D7; test: P. falciparum primary screening at three fixed concentrations; type: cell-based; conditions: average of at least three experiments; for activity at 1 µM / activity at 10 µM / activity at 100 µM: Plasmodium falciparum, read-out: Primary screening, parasite growth relative to the negative control; for activity at 1 µM: 3D7, compound at 1 µM; for activity at 10 µM: 3D7, compound at 10 µM; for activity at 100 µM: 3D7, compound at 100 µM
Method: (§3) Apicomplexan parasite cultures were maintained at 3% hematocrit under an atmosphere of 37 °C in 93% N2, 5% CO2, and 2% O2, following standard methods. Synchronized cultures were obtained via 5% sorbitol lysis.
[…] Conditions were tested in triplicate for every concentration, and the test was repeated when the standard deviation was above 10% for any concentration. Z-values varied between 0.83 and 0.98 in the different plates analyzed. Selected compounds (12.3% potential hit rate) were further analyzed via standard growth inhibition assays, carried out as previously described in [54]. Briefly, parasitemia was adjusted to 1–1.3%, with >90% rings after sorbitol synchronization. Two hundred microliters of parasite culture were plated in 96-well microplates and incubated for 48 h at 37 °C in the presence of decreasing concentrations of the tested compounds, in triplicate. Parasitemia was determined by fluorescence-assisted cell sorting (FACS). Non-infected RBCs and samples containing parasitized RBCs (including controls with DMSO as carrier solvent) were diluted in PBS to a final concentration of ~1–10 × 10^6 cells/mL. The cell suspension was stained with SYTO 11 (0.5 mM stock in DMSO, Thermo Fisher Scientific, Waltham, MA, USA), to a final concentration of 0.5 μM. Samples were analyzed in a Becton Dickinson FACSCalibur. Sample excitation was carried out using a 488-nm, air-cooled argon-ion laser at a power of 15 mW, using forward and side scatter to gate the RBC population, and SYTO 11 green fluorescence (530 nm, FITC filter) was collected in a logarithmic scale. The single-cell population was selected on a forward–side scattergram, and the green fluorescence from this population was analyzed. Parasitemia was expressed as the number of parasitized cells per 100 erythrocytes.
as §2

[3] = test system: Vero cells; test: Vero cell toxicity assay (alamarBlue); type: cell-based, green monkey; conditions: 4 days; minimum value of the 95% CI, except BNZ (mean (SD))
Method: Human erythrocytes were purified from B+ Rh+ blood samples and maintained at 4 °C in incomplete RPMI medium. Vero (green monkey kidney epithelial cells), LLC-MK2 (Rhesus monkey kidney epithelial cells), and HepG2 (human liver epithelial cells) cultures were cultivated in DMEM supplemented with 1% penicillin–streptomycin (PS) and 10% heat-inactivated fetal bovine serum (FBS) at 37 °C, 5% CO2, and >95% humidity, as described in [31]. HepG2 cells were also supplemented with 10% non-essential amino acids. Vero and MK2 cells were passaged twice per week at 1:12 ratios, while HepG2 cells were passaged at a 1:8 ratio.
Vero and HepG2 cells were detached, centrifuged, and resuspended in DMEM without phenol red. Cell viability was checked upon cell counting with trypan blue staining. Then, Vero and HepG2 cells were diluted at a concentration of 5 × 10^5 and 3.2 × 10^5 cells per mL, respectively, before adding 100 µL per well to the 96-well plate. Each run contained its own negative (untreated cells) and positive (medium alone) controls. Plates were incubated at 37 °C for 4 days in the case of Vero, or 2 in the case of HepG2 cells. Assay readout was made by adding 50 µL per well of a PBS solution containing 10% alamarBlue reagent (Thermo Fisher Scientific); then, plates were incubated for another 6 h at 37 °C, before recording the fluorescence intensity with a Tecan Infinite M Nano+ reader (excitation: 530 nm, emission: 590 nm).
as §2

[4] = test system: P. falciparum 3D7; test: P. falciparum dose-response growth inhibition assay (FACS, SYTO 11); type: cell-based; conditions: P. falciparum 3D7, 48 h, mean (SD)
Method: as §3
P. falciparum growth was primarily analyzed under 3 different concentrations ([…]) of the 81 compounds. Conditions were tested in triplicate for every concentration, and the test was repeated when the standard deviation was above 10% for any concentration. Z-values varied between 0.83 and 0.98 in the different plates analyzed. Selected compounds (12.3% potential hit rate) were further analyzed via standard growth inhibition assays, carried out as previously described in [54]. Briefly, parasitemia was adjusted to 1–1.3%, with >90% rings after sorbitol synchronization. Two hundred microliters of parasite culture were plated in 96-well microplates and incubated for 48 h at 37 °C in the presence of decreasing concentrations of the tested compounds, in triplicate. Parasitemia was determined by fluorescence-assisted cell sorting (FACS). Non-infected RBCs and samples containing parasitized RBCs (including controls with DMSO as carrier solvent) were diluted in PBS to a final concentration of ~1–10 × 10^6 cells/mL. The cell suspension was stained with SYTO 11 (0.5 mM stock in DMSO, Thermo Fisher Scientific, Waltham, MA, USA), to a final concentration of 0.5 μM. Samples were analyzed in a Becton Dickinson FACSCalibur. Sample excitation was carried out using a 488-nm, air-cooled argon-ion laser at a power of 15 mW, using forward and side scatter to gate the RBC population, and SYTO 11 green fluorescence (530 nm, FITC filter) was collected in a logarithmic scale. The single-cell population was selected on a forward–side scattergram, and the green fluorescence from this population was analyzed. Parasitemia was expressed as the number of parasitized cells per 100 erythrocytes.
as §2

[5] = test system: T. cruzi intracellular amastigotes; test: Antiamastigote growth inhibition assay; type: cell-based; conditions: intracellular amastigotes in Vero cells; mean (SD); read-out: T. cruzi IC50 b (antiamastigote assay)
Method: Vero cells were seeded in T-175 flasks (5 × 10^6 cells per flask) in DMEM supplemented with 1% penicillin–streptomycin and 10% FBS, and cultured for 24 h. Then, cells were washed once with PBS, and free-swimming trypomastigotes (1 × 10^7 trypomastigotes per flask; MOI = 1) in assay medium were added and allowed 18 h to infect. After that, infected cell monolayers were washed with PBS and detached. Cells were counted and diluted to a concentration of 5 × 10^5 cells per mL, before adding 100 µL per well to test plates already containing the drugs dispensed as described above. In all cases, we included BNZ as control drug, and each plate contained its own negative (Vero cells and parasites) and positive (Vero cells) controls.
as §2

[6] = test system: T. cruzi Tulahuen strain expressing β-galactosidase; test: anti-T. cruzi dose-response growth inhibition assay (Vero cells plus trypomastigotes, CPRG readout); type: cell-based
Method: as §1
T. cruzi growth was primarily analyzed under three different concentrations ([…]) of the 81 compounds. Conditions were tested in triplicate for every concentration. Z-values varied between 0.81 and 0.92 in the different plates analyzed. Selected compounds (34.6% potential hit rate) were further analyzed via standard growth inhibition assays. The Z-values of dose–response assays correlated with those previously reported. For both assays, Vero cells and trypomastigotes from the Tulahuen T. cruzi strain expressing β-galactosidase were harvested, centrifuged, and resuspended in DMEM without phenol red supplemented with 1% PSG, 2% FBS, 1 mM sodium pyruvate, and 25 mM HEPES. Vero cells and trypomastigotes were counted, diluted at a concentration of 1 × 10^6 cells/mL each, and mixed 1:1 (v/v). Then, 100 μL of that mixture was added per well to the plates already containing the compounds. Each well contained 50,000 host cells and 50,000 parasites, i.e., multiplicity of infection (MOI) = 1. BNZ was used as control of maximal drug growth inhibition in each round, whereas each plate contained its own negative control (maximum parasite growth; Vero cells plus parasites without drugs) and positive control (minimum parasite growth; trypomastigote forms alone marking an enzymatic zero time or baseline galactosidase activity). After four days at 37 °C, 50 µL of a PBS solution containing 0.25% NP40 and 500 µM chlorophenol red-β-D-galactopyranoside (CPRG) substrate were added per well [32]. Plates were incubated at 37 °C for 4 h, and their absorbance read out at 590 nm using an Epoch Gene5 spectrophotometer.
as §2

[7] = compound at 1 µM, average of at least three independent experiments
[8] = compound at 10 µM, average of at least three independent experiments
[9] = Plasmodium falciparum, 3D7, 48 h
[10] = Vero cells plus trypomastigotes, MOI 1, four days, mean (SD), read-out: T. cruzi IC50 a (anti-T. cruzi assay)

| SMILES | activity at 100 µM [1] [%] | activity at 1 µM [1, 7] [%] | activity at 10 µM [1, 8] [%] | activity at 1 µM [2] [%] | activity at 10 µM [2] [%] | activity at 100 µM [2] [%] | Vero Cells TC50 [3] [µM] | IC50 [4] [µM] | IC50 [4, 9] [µM] | Primary screening, growth inhibition values at 1 µM [1, 7] | Primary screening, growth inhibition values at 10 µM [1, 8] | Primary screening, parasite growth relative to the negative control ([2]; compound at 1 µM) [%] | Primary screening, parasite growth relative to the negative control ([2]; compound at 10 µM) [%] | Primary screening, parasite growth relative to the negative control ([2]; compound at 100 µM) [%] | IC50 [5] [µM] | IC50 [6, 10] [µM] | IC50 ([6]; Trypanosoma cruzi, TULAHUEN, Vero, anti-T. cruzi IC50 of non-progressed compounds, read-out: Dose-response assay IC50) [µM] |
| --- | --- | --- | --- | --- | --- | --- | --- | --- | --- | --- | --- | --- | --- | --- | --- | --- | --- |
| COc1ccccc1-n1cc(COc2ncnc3c2nc(-c2ccccc2)n3N(C)C)nn1 [Compound 33] | 21.5 | 91.5 | 63.3 | 96.3 | 85.4 | 22.5 | >300 | 19.2 | ~20 |  |  |  |  |  |  |  |  |
| c1ccc(-c2nc3c(OCc4cn(Cc5cscn5)nn4)ncnc3n2N2CCCCC2)cc1 [Compound 76] | 49.8 | 89.4 | 88.2 | 95.7 | 84.3 | 15.2 | >500 | 18.3 | ~20 |  |  |  |  |  |  |  |  |
| CN1CCN(n2c(-c3ccccc3)nc3c(OCc4cn(Cc5cscn5)nn4)ncnc32)CC1 [Compound 84] |  |  |  |  |  |  | >70 | 28 |  | 93.615 | 93.94 | 96.34 | 88.61 | 13.94 |  |  |  |
| COc1cccc(-n2cc(COc3ncnc4c3ncn4C(C)(C)C)nn2)c1 [Compound 88] |  |  |  |  |  |  | >180 | 65.3 |  |  |  | 92.13 | 81.69 | 21.43 | 35.4 | 12.7 |  |
| C#CCOc1ncnc2c1ncn2N1CCN(C)CC1 [Compound 93] |  |  |  |  |  |  | >2000 |  |  |  |  | 107.86 | 104.00 | 105.52 | 218 | 1.42 |  |
| COc1cccc(-n2cc(COc3ncnc4c3ncn4N3CCN(C)CC3)nn2)c1 [Compound 94] |  |  |  |  |  |  | >60 |  |  |  |  | 128.84 | 125.18 | 104.00 | 75.1 | 0.92 |  |
| c1ccc(COc2ncnc3c2ncn3Cc2ccccc2)cc1 [MJ11] | 6.06 | 91.4 | 85.5 | 103 | 102 | 31.8 |  |  |  |  |  |  |  |  |  |  | 17.7 |
